Assay results reported in ChEMBL document CHEMBL5500416, “Development of a Potent and Selective G2A (GPR132) Agonist” (J Med Chem, 2024).

Columns and labels:
[1] = target: T1, Probable G-protein coupled receptor 132 (Homo sapiens, UniProt Q9UNW8)
T1 sequence (Q9UNW8 whole entry): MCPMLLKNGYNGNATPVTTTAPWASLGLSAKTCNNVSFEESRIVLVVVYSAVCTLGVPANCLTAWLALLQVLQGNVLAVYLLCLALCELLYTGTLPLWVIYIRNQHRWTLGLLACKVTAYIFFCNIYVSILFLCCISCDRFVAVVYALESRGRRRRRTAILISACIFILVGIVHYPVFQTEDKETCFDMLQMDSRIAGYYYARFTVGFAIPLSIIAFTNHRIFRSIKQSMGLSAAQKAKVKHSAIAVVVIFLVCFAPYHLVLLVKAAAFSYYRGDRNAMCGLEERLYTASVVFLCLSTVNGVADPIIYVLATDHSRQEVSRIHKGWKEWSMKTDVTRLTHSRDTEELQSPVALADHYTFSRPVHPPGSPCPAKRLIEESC
Description: Agonist activity at human G2A expressed in CHO-K1 cells co-expressing human GNA11 assessed as accumulation of IP-1 incubated for 90 mins by HTRF based FRET assay

[2] = Cytotoxicity against human HepG2 cells assessed as cell viability upto 100 uM incubated for 72 hrs by CellTiter-Glo assay relative to control; format: toxicity, cell-based; conditions: read-out: Activity
[3] = AUC (0 to 12 hrs) in male C57BL/6N mouse at 10 mg/kg, sc measured after 12 hrs by LC-MS analysis; format: ADME, organism-based; conditions: in vivo
[4] = Tmax in male C57BL/6N mouse at 1 mg/kg, iv measured after 8 hrs by LC-MS analysis; format: ADME, organism-based; conditions: in vivo
[5] = Cmax in male C57BL/6N mouse at 10 mg/kg, sc measured after 12 hrs by LC-MS analysis; format: ADME, organism-based; conditions: in vivo
[6] = AUC (0 to 8 hrs) in male C57BL/6N mouse at 1 mg/kg, iv measured after 8 hrs by LC-MS analysis; format: ADME, organism-based; conditions: in vivo
[7] = Cmax in male C57BL/6N mouse at 1 mg/kg, iv measured after 8 hrs by LC-MS analysis; format: ADME, organism-based; conditions: in vivo
[8] = target: T1, Probable G-protein coupled receptor 132; remark: listed apart in the source
Description: Binding affinity to SmBit-tagged human G2A expressed in CHOK-1 cells co-expressing LgBit-betaarrestin2 incubated for 15 mins by NanoLuc betaarrestin2 recruitment assay

[9] = Drug concentration in male C57BL/6N mouse plasma at 1 mg/kg, iv measured after 8 hrs by LC-MS analysis; format: ADME, organism-based
[10] = Clearance in male C57BL/6N mouse at 10 mg/kg, sc measured after 12 hrs by LC-MS analysis; format: ADME, organism-based; conditions: in vivo
[11] = Metabolic stability in Sprague-Dawley rat liver microsomes assessed as parent compound remaining measured after 60 mins in presence of NADPH regenerating system by HPLC analysis; format: ADME, Microsome; conditions: read-out: Stability
[12] = Aqueous solubility of compound in PBS at pH 7.4 measured after 24 hrs by microplate analysis; format: physicochemical; conditions: buffer, pH 7.4, 24 h
[13] = Drug concentration in male C57BL/6N mouse plasma at 10 mg/kg, sc measured after 12 hrs by LC-MS analysis; format: ADME, organism-based
[14] = Metabolic stability in Sprague-Dawley rat liver microsomes assessed as intrinsic clearance measured after 60 mins in presence of NADPH regenerating system by HPLC analysis; format: ADME, Microsome; conditions: 1 h
[15] = Tmax in male C57BL/6N mouse at 10 mg/kg, sc measured after 12 hrs by LC-MS analysis; format: ADME, organism-based; conditions: in vivo

Row | SMILES | EC50 [1] [µM] | other results
1 | CC(c1ccccc1)C(NC(=O)c1cccc(OCc2cccnc2)c1)C(=O)O (stereo unspecified) | 19.6 | 
2 | O=C(NC(Cc1ccccc1)C(=O)O)c1cccc(OCc2cccnc2)c1 (stereo unspecified) | 1.74 | viability at 72 h, up to 100 µM [2]: ≥ 90%
3 | O=C(NC(Cc1ccccc1)C(=O)O)c1cccc(OCc2ccccc2)c1 (stereo unspecified) | 7.5 | 
4 | O=C(NC(C(=O)O)c1cccnc1)c1cccc(OCc2cccnc2)c1 (stereo unspecified) | 79.2 | 
5 | O=C(NC(Cc1ccc(OC(F)(F)F)cc1)C(=O)O)c1cccc(OCc2cccnc2)c1 (racemic) | 3.34 | 
6 | C[C@H]1CC[C@@](NC(=O)c2cccc(OCc3cccnc3)c2)(C(=O)O)CC1 | 13.2 | 
7 | O=C(N[C@H](Cc1ccccc1)C(=O)O)c1cccc(OCc2cccnc2)c1 | 0.82 | viability at 72 h, up to 100 µM [2]: ≥ 90%; AUC(0-t) at 12 h [3]: 591 ng·h/mL; Tmax [4]: 15 min; Cmax [5]: 755 ng/mL; AUC(0-t) at 8 h [6]: 47.3 ng·h/mL; Cmax [7]: 45.3 ng/mL; EC50 [8]: 7.7 µM; concentration at 8 h [9]: 2.4 ng/mL; CL/F [10]: 141 mL/min/kg; remaining at 1 h [11]: 98%; solubility [12]: >= 3000 uM; concentration at 12 h [13]: 2.9 ng/mL; CLint [14]: 1.68 µL/min/mg; Tmax [15]: 30 min
8 | CC(NC(=O)c1cccc(OCc2cccnc2)c1)(C(=O)O)c1ccccc1 (stereo unspecified) | 6.2 | 
9 | O=C(NC(Cc1ccccc1)C(=O)O)c1ccc(OCc2cccnc2)cc1 (racemic) | 38.2 | 
10 | O=C(NC(Cc1ccccc1)C(=O)O)c1cccc(OCc2ccncc2)c1 (racemic) | 2.87 | 
11 | O=C1C2=C(CCN(Cc3ccccc3)C2)N2CCN=C2N1Cc1ccc(C(F)(F)F)cc1 | 3.92 | 
12 | CCCCC/C=C\C=C\C(O)CCCCCCCC(=O)O (racemic) | 7.5 | 
13 | O=C(NC(Cc1ccccc1)C(=O)O)c1cccc(OCc2ccccn2)c1 (racemic) | 11.9 | 
14 | O=C(N[C@H](Cc1ccc(C(F)(F)F)cc1)C(=O)O)c1cccc(OCc2cccnc2)c1 | 8.71 | 

Further lines, with some results ahead:

Row | EC50 [1] [µM] | SMILES | other results
15 | > 100 | COC[C@H](NC(=O)c1cccc(OCc2cccnc2)c1)C(=O)O | 
16 | 49.7 | O=C(NC(Cc1ccncc1)C(=O)O)c1cccc(OCc2cccnc2)c1 (stereo unspecified) | 
17 | 1.96 | O=C(NC(Cc1ccc(F)cc1)C(=O)O)c1cccc(OCc2cccnc2)c1 (stereo unspecified) | 
18 | 40.6 | CCC[C@@H](NC(=O)c1cccc(OCc2cccnc2)c1)C(=O)O | 
19 | 13.5 | O=C(NC(Cc1ccccc1Cl)C(=O)O)c1cccc(OCc2cccnc2)c1 (stereo unspecified) | 
20 | 27.5 | CCC(NC(=O)c1cccc(OCc2cccnc2)c1)C(=O)O (stereo unspecified) | 
21 | > 100 | O=C(NC(C(=O)O)C1CC1)c1cccc(OCc2cccnc2)c1 (stereo unspecified) | 
22 | 38.4 | O=C(N[C@@H](C(=O)O)c1ccccc1)c1cccc(OCc2cccnc2)c1 | 
23 | 12.2 | O=C(N[C@@H](CC1CCCCC1)C(=O)O)c1cccc(OCc2cccnc2)c1 | 
24 | 68.5 | O=C(N[C@@H](CCc1ccccc1)C(=O)O)c1cccc(OCc2cccnc2)c1 | 
25 | 12 | O=C(N[C@H](CCc1ccccc1)C(=O)O)c1cccc(OCc2cccnc2)c1 | 
26 | 31.1 | O=C(N[C@@H](Cc1ccccc1)C(=O)O)c1cccc(OCc2cccnc2)c1 | 
27 | 2.92 | CCC[C@H](NC(=O)c1cccc(OCc2cccnc2)c1)C(=O)O | 
28 | 64.8 | CC(C)[C@@H](NC(=O)c1cccc(OCc2cccnc2)c1)C(=O)O | 
29 | 7.33 | CC(C)[C@H](NC(=O)c1cccc(OCc2cccnc2)c1)C(=O)O | 
30 | 6.87 | CCCC(NC(=O)c1cccc(OCc2cccnc2)c1)C(=O)O (stereo unspecified) | 
31 | 7.53 | O=C(N[C@H](Cc1ccc(Cl)cc1)C(=O)O)c1cccc(OCc2cccnc2)c1 | 
